Source: patent US20200405868A1, “GEL-FORMING POLYPEPTIDES” (priority 2018, published 2020)
“Also recorded” adds a separate entry of the source. Where no end group is shown, it is not given here.

Assay: Compound gel-forming ability in water (visual inspection, tube tapping assay, tilted tube assay);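 further: peptides mixed with de-ionized water at about 22-25 °C, judged after 20 min by eye plus tube tapping (10 taps, moves counted) and 90° tilt mobility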
Type: physicochemical
Settings: for gel formation at 6% w/w: 6% w/w in water; for gel formation at 11% w/w: 11% w/w in water; for Physical property at 11% w/w: 11% w/w in aqueous solution, room temperature; for gel formation in aqueous solution, 11% / propensity to form gels, wild-type counterparts, 11% / propensity to form gels, chimeric or mutated polypeptides, 11%: 11% w/w; for propensity to form gels, chimeric or mutated polypeptides, 3% / gel formation in aqueous solution, 3%: 3% w/w; for gel formation at 3% w/w: 3% w/w in water; for gel formation at the selected concentration: selected concentration (i.e., at 30%, 20%, 11%, or 6% w/w); for gel formation at 20% w/w: 20% w/w in water

(D-Tyr)QWAV(β-Ala)HF(Nle)-NH2 [SEQ ID NO:20, reference compound]
gel formation at 6% w/w: does not form gel | gel formation at 11% w/w: does not form gel | Physical property at 11% w/w (Table 1): AS/IS | gel formation in aqueous solution, 6% (Table 3, 6% w/w): AS/IS (AS/IS for aqueous solution or insoluble) | gel formation in aqueous solution, 11% (Table 3): AS/IS (AS/IS for aqueous solution or insoluble) | propensity to form gels, wild-type counterparts, 6% (Table 5, 6% w/w): AS/IS | propensity to form gels, wild-type counterparts, 11% (Table 5): AS/IS

Pal-HSYKRPPGFS-(DβNal)-Ile-NH2 [SEQ ID NO:261]
gel formation at 6% w/w: liquid gel | gel formation at 11% w/w: semisolid gel | gel formation in aqueous solution, 11% (Table 3): SS (SS for semisolid gel) | propensity to form gels, chimeric or mutated polypeptides, 3% (Table 5): AS/IS | propensity to form gels, chimeric or mutated polypeptides, 11% (Table 5): SS (An ability to form semisolid gel is represented by an SS)

VGVAPG-NH2 [SEQ ID NO:45, reference compound]
Physical property at 11% w/w (Table 1): AS/IS | gel formation in aqueous solution, 6% (Table 3, 6% w/w): AS/IS (AS/IS for aqueous solution or insoluble) | gel formation in aqueous solution, 11% (Table 3): AS/IS (AS/IS for aqueous solution or insoluble) | propensity to form gels, wild-type counterparts, 6% (Table 5, 6% w/w): AS/IS | propensity to form gels, wild-type counterparts, 11% (Table 5): AS/IS

HAEGTFTSDVSSYLEGQAAK(YSHPSS-Pal)EFIAWLVRGRG [SEQ ID NO:269]
gel formation in aqueous solution, 11% (Table 3): SS (SS for semisolid gel) | gel formation in aqueous solution, 20% (Table 3, 20% w/w): SS (SS for semisolid gel) | propensity to form gels, chimeric or mutated polypeptides, 11% (Table 5): SS (An ability to form semisolid gel is represented by an SS) | propensity to form gels, chimeric or mutated polypeptides, 20% (Table 5, 20% w/w): SS (An ability to form semisolid gel is represented by an SS)

CC[C@H](C)[C@H](N)C(=O)N[C@H]1CSSC[C@@H](C(=O)N[C@H](C(N)=O)[C@@H](C)O)NC(=O)[C@H](CCCN=C(N)N)NC(=O)[C@H](Cc2cnc[nH]2)NC(=O)[C@H](Cc2cnc[nH]2)NC(=O)CNC(=O)[C@H](Cc2c[nH]c3ccccc23)NC(=O)[C@H](CC(=O)O)NC(=O)[C@H](CCC(N)=O)NC(=O)[C@H](C(C)C)NC(=O)[C@H](C(C)C)NC1=O [SEQ ID NO:11, reference compound]
gel formation at 11% w/w: form self-assembling gels; also recorded: semisolid gel | Physical property at 11% w/w (Table 1): SS (SS for semisolid gel) | gel formation in aqueous solution, 11% (Table 3): SS (SS for semisolid gel) | propensity to form gels, wild-type counterparts, 11% (Table 5): SS (An ability to form semisolid gel is represented by an SS)

Ace-KVQKLSAPVDPSSPHSY-NH2 [SEQ ID NO:115]
Physical property at 11% w/w (Table 2): AS/IS (AS/IS for aqueous solution or insoluble)

Pal-KVQKLSAPVDPSSPHSY-miniPEG-EHWSY-(D-2Nal)-LRPG-NH2 [SEQ ID NO:201]
gel formation at 3% w/w: semisolid gel | gel formation at 6% w/w: semisolid gel | gel formation at 11% w/w: semisolid gel | gel formation in aqueous solution, 3% (Table 3): SS (SS for semisolid gel) | gel formation in aqueous solution, 6% (Table 3, 6% w/w): SS (SS for semisolid gel) | gel formation in aqueous solution, 11% (Table 3): SS (SS for semisolid gel) | propensity to form gels, chimeric or mutated polypeptides, 3% (Table 5): SS (An ability to form semisolid gel is represented by an SS) | propensity to form gels, chimeric or mutated polypeptides, 6% (Table 5, 6% w/w): SS (An ability to form semisolid gel is represented by an SS) | propensity to form gels, chimeric or mutated polypeptides, 11% (Table 5): SS (An ability to form semisolid gel is represented by an SS)

CC[C@H](C)[C@@H]1NC(=O)[C@H](Cc2ccc(O)cc2)NC(=O)[C@@H](N)CSSC[C@@H](C(=O)N2CCC[C@H]2C(=O)N[C@@H](CC(C)C)C(=O)NCC(N)=O)NC(=O)[C@H](CC(N)=O)NC(=O)[C@H](CCC(N)=O)NC1=O [SEQ ID NO:5, reference compound]
gel formation at 6% w/w: does not form liquid or semisolid gel | gel formation at 11% w/w: semisolid gel | Physical property at 11% w/w (Table 1): SS (SS for semisolid gel) | gel formation in aqueous solution, 6% (Table 3, 6% w/w): AS/IS (AS/IS for aqueous solution or insoluble) | gel formation in aqueous solution, 11% (Table 3): SS (SS for semisolid gel) | propensity to form gels, wild-type counterparts, 6% (Table 5, 6% w/w): AS/IS | propensity to form gels, wild-type counterparts, 11% (Table 5): SS (An ability to form semisolid gel is represented by an SS) | gel formation at the selected concentration: only form aqueous solution or are insoluble

Pal-KVQKLSAPVDPSSPHSY-miniPEG-Y-(D-Ala)-GF(D-Leu)-NH2 [SEQ ID NO:212]
gel formation at 3% w/w: semisolid gels | gel formation in aqueous solution, 3% (Table 3): SS (SS for semisolid gel) | propensity to form gels, chimeric or mutated polypeptides, 3% (Table 5): SS (An ability to form semisolid gel is represented by an SS)

PGTCEICAYAACTGC [SEQ ID NO:40, reference compound]
Physical property at 11% w/w (Table 1): AS/IS

YRSRKYSSWY-NH2 [SEQ ID NO:46, reference compound]
Physical property at 11% w/w (Table 1): AS/IS | gel formation in aqueous solution, 11% (Table 3): AS/IS (AS/IS for aqueous solution or insoluble) | propensity to form gels, wild-type counterparts, 11% (Table 5): AS/IS

Pal-SSPHSY-miniPEG-(D-Arg)-Arg-Pro-Hyp-Gly-Thi-Ser-(D-Tic)-Oic-Arg [SEQ ID NO:233]
gel formation at 30% w/w (30% w/w in water): semisolid gel | gel formation in aqueous solution, 11% (Table 3): AS/IS (AS/IS for aqueous solution or insoluble) | gel formation in aqueous solution, 30% (Table 3, 30% w/w): SS (SS for semisolid gel)

IVLSLDVPIGLLQILLEQARARAAREQATTNARILARVGHC-NH2 [SEQ ID NO:31, reference compound]
gel formation at 11% w/w: does not form gel | gel formation at 20% w/w: does not form gel | Physical property at 11% w/w (Table 1): AS/IS | gel formation in aqueous solution, 11% (Table 3): AS/IS (AS/IS for aqueous solution or insoluble) | gel formation in aqueous solution, 20% (Table 3, 20% w/w): AS/IS (AS/IS for aqueous solution or insoluble) | propensity to form gels, wild-type counterparts, 11% (Table 5): AS/IS | propensity to form gels, wild-type counterparts, 20% (Table 5, 20% w/w): AS/IS | gel formation at the selected concentration: only form aqueous solution or are insoluble

Pal-SSPHSY-miniPEG-VGVAPG-NH2 [SEQ ID NO:248]
gel formation at 11% w/w: liquid gel | gel formation at 20% w/w: semisolid gel | gel formation in aqueous solution, 20% (Table 3, 20% w/w): SS (SS for semisolid gel) | propensity to form gels, chimeric or mutated polypeptides, 20% (Table 5, 20% w/w): SS (An ability to form semisolid gel is represented by an SS)

Pal-HSY-NH2 [SEQ ID NO:120]
Physical property at 11% w/w (Table 2): SS (SS for semisolid gel)

YVMGHFRWDRF-NH2 [SEQ ID NO:64, reference compound]
gel formation at 6% w/w: stay soluble | gel formation at 11% w/w: form self-assembling gels; also recorded: liquid gel | gel formation in aqueous solution, 6% (Table 3, 6% w/w): AS/IS (AS/IS for aqueous solution or insoluble) | propensity to form gels, wild-type counterparts, 6% (Table 5, 6% w/w): AS/IS | gel formation at the selected concentration: only form aqueous solution or are insoluble
